pIC50: −log10 of the molar value.
Test: Inhibition of calcium ionophore (A-23187)-stimulated LTB4 formation in human neutrophil assay

| pIC50 | SMILES |
| --- | --- |
| 7.15 | C/C(=N\O[C@@H](c1ccc(OCc2ccc3ccccc3n2)cc1)C1CCCCC1)C(=O)O |
| 7.70 | C/C(CCC(=O)O)=N/OC(c1ccc(OCc2ccc3ccccc3n2)cc1)C1CCCCC1 (stereo not given) |
| 8.10 | C/C(=N\O[C@H](c1ccc(OCc2ccc3ccccc3n2)cc1)C1CCCCC1)C(=O)O [listing 1 of 2 here] |
| 7.64 | O=C(O)/C(=N\OC(c1ccc(OCc2ccc3ccccc3n2)cc1)C1CCCCC1)c1cccs1 (stereo not given) |
| 7.47 | C/C(=N\O[C@H](c1ccc(OCc2ccc3ccccc3n2)cc1)C1CCCCC1)C(=O)O [listing 2 of 2 here] |
| 7.30 | C/C(=N\OC(Cc1ccc(OCc2ccc3ccccc3n2)cc1)C1CCCCC1)C(=O)O (stereo not given) [2-{1-Cyclohexyl-2-[4-(quinolin-2-ylmethoxy)-phenyl]-ethoxyimino}-propionic acid] |
| 6.85 | C=CCC(O/N=C(\C)C(=O)O)c1ccc(OCc2ccc3ccccc3n2)cc1 (stereo not given) [2-{1-[4-(Quinolin-2-ylmethoxy)-phenyl]-but-3-enyloxyimino}-propionic acid] |
| 7.85 | CCCCC(CCCC)C(O/N=C(\C)C(=O)O)c1ccc(OCc2ccc3ccccc3n2)cc1 (stereo not given) [2-{2-Butyl-1-[4-(quinolin-2-ylmethoxy)-phenyl]-hexyloxyimino}-propionic acid (2H2O)] |
| 7.54 | C/C(=N\OC(CC1CCCCC1)c1ccc(OCc2ccc3ccccc3n2)cc1)C(=O)O (stereo not given) [2-{2-Cyclohexyl-1-[4-(quinolin-2-ylmethoxy)-phenyl]-ethoxyimino}-propionic acid] |
| 7.70 | C/C(=N\OCC(c1ccc(OCc2ccc3ccccc3n2)cc1)C1CCCCC1)C(=O)O (stereo not given) [2-{2-Cyclohexyl-2-[4-(quinolin-2-ylmethoxy)-phenyl]-ethoxyimino}-propionic acid] |
| 7.52 | C/C(=N\OC(Cc1ccccc1)c1ccc(OCc2ccc3ccccc3n2)cc1)C(=O)O (stereo not given) [2-{2-Phenyl-1-[4-(quinolin-2-ylmethoxy)-phenyl]-ethoxyimino}-propionic acid (0.25H2O)] |
| 7.70 | C/C(=N\OC(c1ccc(OCc2ccc3ccccc3n2)cc1)C1C2CC3CC(C2)CC1C3)C(=O)O (stereo not given) [2-{Adamantan-2-yl-[4-(quinolin-2-ylmethoxy)-phenyl]-methoxyimino}-propionic acid] |
| 7.89 | C/C(=N\OC(c1ccc(OCc2ccc3ccccc3n2)cc1)C1CCCCCC1)C(=O)O (stereo not given) [2-{Cycloheptyl-[4-(quinolin-2-ylmethoxy)-phenyl]-methoxyimino}-propionic acid (0.5H2O)] |
| 7.05 | C/C(=N\OC(c1ccc(OCc2ccc3ccccc3n2)cc1SC1CCCCC1)C1CCCCC1)C(=O)O (stereo not given) [2-{Cyclohexyl-[2-cyclohexylsulfanyl-4-(quinolin-2-ylmethoxy)-phenyl]-methoxyimino}-propionic acid] |
| 7.70 | C/C(=N\OC(c1ccc(OCc2ccc3ccccc3n2)c(C)c1)C1CCCCC1)C(=O)O (stereo not given) [2-{Cyclohexyl-[3-methyl-4-(quinolin-2-ylmethoxy)-phenyl]-methoxyimino}-propionic acid (0.1H2O)] |
| 7.70 | C/C(=N\OC(c1ccc(OCc2nc(-c3ccccc3)cs2)cc1)C1CCCCC1)C(=O)O (stereo not given) [2-{Cyclohexyl-[4-(4-phenyl-thiazol-2-ylmethoxy)-phenyl]-methoxyimino}-propionic acid (0.5H2O)] |
| 7.70 | C/C(=N\OC(c1ccc(OCc2ccc3cc(F)ccc3n2)cc1)C1CCCCC1)C(=O)O (stereo not given) [2-{Cyclohexyl-[4-(6-fluoro-quinolin-2-ylmethoxy)-phenyl]-methoxyimino}-propionic acid] |
| 6.74 | O=C(O)/C(CSCCO)=N/OC(c1ccc(OCc2ccc3ccccc3n2)cc1)C1CCCCC1 (stereo not given) [2-{Cyclohexyl-[4-(quinolin-2-ylmethoxy)-phenyl]-methoxyimino}-3-(2-hydroxy-ethylsulfanyl)-propionic acid] |
| 7.37 | O=C(O)/C(Cc1ccc(O)cc1)=N/OC(c1ccc(OCc2ccc3ccccc3n2)cc1)C1CCCCC1 (stereo not given) [2-{Cyclohexyl-[4-(quinolin-2-ylmethoxy)-phenyl]-methoxyimino}-3-(4-hydroxy-phenyl)-propionic acid] |
| 7.46 | O=C(O)/C(Cc1ccccc1)=N/OC(c1ccc(OCc2ccc3ccccc3n2)cc1)C1CCCCC1 (stereo not given) [2-{Cyclohexyl-[4-(quinolin-2-ylmethoxy)-phenyl]-methoxyimino}-3-phenyl-propionic acid (H2O)] |
| 7.70 | O=C(O)/C(CCc1ccccc1)=N/OC(c1ccc(OCc2ccc3ccccc3n2)cc1)C1CCCCC1 (stereo not given) [2-{Cyclohexyl-[4-(quinolin-2-ylmethoxy)-phenyl]-methoxyimino}-4-phenyl-butyric acid (0.5H2O)] |
| 7.52 | CC/C(=N\OC(c1ccc(OCc2ccc3ccccc3n2)cc1)C1CCCCC1)C(=O)O (stereo not given) [2-{Cyclohexyl-[4-(quinolin-2-ylmethoxy)-phenyl]-methoxyimino}-butyric acid (H2O)] |

| pIC50 | SMILES |
| --- | --- |
| 6.44 | C/C(=N\OC(c1ccc(OCc2cscn2)cc1)C1CCCCC1)C(=O)O (stereo not given) [2-{Cyclohexyl-[4-(thiazol-4-ylmethoxy)-phenyl]-methoxyimino}-propionic acid (0.25H2O)] |
| 7.48 | C/C(=N\OC(c1cc2cc(OCc3ccc4ccccc4n3)ccc2s1)C1CCCCC1)C(=O)O (stereo not given) [2-{Cyclohexyl-[5-(quinolin-2-ylmethoxy)-benzo[b]thiophen-2-yl]-methoxyimino}-propionic acid] |
| 6.31 | C/C(=N\OC(c1cc(OCc2ccc3ccccc3n2)on1)C1CCCCC1)C(=O)O (stereo not given) [2-{Cyclohexyl-[5-(quinolin-2-ylmethoxy)-isoxazol-3-yl]-methoxyimino}-propionic acid] |
| 7.40 | C/C(=N\OC(c1cc2ccc(OCc3ccc4ccccc4n3)cc2s1)C1CCCCC1)C(=O)O (stereo not given) [2-{Cyclohexyl-[6-(quinolin-2-ylmethoxy)-benzo[b]thiophen-2-yl]-methoxyimino}-propionic acid] |
| 7.80 | C/C(=N\OC(c1ccc(OCc2ccc3ccccc3n2)cc1)C1CCCC1)C(=O)O (stereo not given) [2-{Cyclopentyl-[4-(quinolin-2-ylmethoxy)-phenyl]-methoxyimino}-propionic acid] |
| 7.32 | C/C(=N\OC(c1ccc(OCc2nc3cc(F)ccc3s2)cc1Cl)C1CCCCC1)C(=O)O (stereo not given) [2-{[2-Chloro-4-(5-fluoro-benzothiazol-2-ylmethoxy)-phenyl]-cyclohexyl-methoxyimino}-propionic acid] |
| 7.85 | C/C(=N\OC(c1ccc(OCc2ccc3ccccc3n2)cc1Cl)C1CCCCC1)C(=O)O (stereo not given) [2-{[2-Chloro-4-(quinolin-2-ylmethoxy)-phenyl]-cyclohexyl-methoxyimino}-propionic acid] |
| 7.57 | C/C(=N\OC(c1ccc(OCc2ccc3ccccc3n2)c(Cl)c1)C1CCCCC1)C(=O)O (stereo not given) [2-{[3-Chloro-4-(quinolin-2-ylmethoxy)-phenyl]-cyclohexyl-methoxyimino}-propionic acid] |
| 7.55 | C/C(=N\OC(c1ccc(OCc2nc3ccccc3s2)cc1Cl)C1CCCCC1)C(=O)O (stereo not given) [2-{[4-(Benzothiazol-2-ylmethoxy)-2-chloro-phenyl]-cyclohexyl-methoxyimino}-propionic acid] |
| 7.22 | C/C(=N\OC(c1ccc(OCc2nc3ccccc3s2)cc1)C1CCCCC1)C(=O)O (stereo not given) [2-{[4-(Benzothiazol-2-ylmethoxy)-phenyl]-cyclohexyl-methoxyimino}-propionic acid (0.5H2O)] |
| 7.48 | C/C(=N\OC(c1ccc(OCc2ccc3ccccc3n2)cc1)c1cccs1)C(=O)O (stereo not given) [2-{[4-(Quinolin-2-ylmethoxy)-phenyl]-thiophen-2-yl-methoxyimino}-propionic acid] |
| 6.92 | CC(C)(C)SC/C(=N\OC(c1ccc(OCc2ccc3ccccc3n2)cc1)C1CCCCC1)C(=O)O (stereo not given) [3-tert-Butylsulfanyl-2-{cyclohexyl-[4-(quinolin-2-ylmethoxy)-phenyl]-methoxyimino}-propionic acid] |
| 7.51 | O=C(O)c1ccc(/C=N/OC(c2ccc(OCc3ccc4ccccc4n3)cc2)C2CCCCC2)cc1 (stereo not given) [4-({Cyclohexyl-[4-(quinolin-2-ylmethoxy)-phenyl]-methoxyimino}-methyl)-benzoic acid] |
| 7.40 | CC(/C=C/C(=O)O)=N\OC(c1ccc(OCc2ccc3ccccc3n2)cc1)C1CCCCC1 (stereo not given) [4-{Cyclohexyl-[4-(quinolin-2-ylmethoxy)-phenyl]-methoxyimino}-pent-2-enoic acid (0.25H2O)] |
| 7.23 | C/C(CCCC(=O)O)=N\OC(c1ccc(OCc2ccc3ccccc3n2)cc1)C1CCCCC1 (stereo not given) [5-{Cyclohexyl-[4-(quinolin-2-ylmethoxy)-phenyl]-methoxyimino}-hexanoic acid] |
| 7.77 | C/C(CCCCCC(=O)O)=N\OC(c1ccc(OCc2ccc3ccccc3n2)cc1)C1CCCCC1 (stereo not given) [7-{Cyclohexyl-[4-(quinolin-2-ylmethoxy)-phenyl]-methoxyimino}-octanoic acid (0.25H2O)] |
| 7.46 | CC(C)c1ccc(-c2csc(COc3ccc(C(O/N=C/C(=O)O)C4CCCCC4)cc3)n2)cc1 (stereo not given) [(Cyclohexyl-{4-[4-(4-isopropyl-phenyl)-thiazol-2-ylmethoxy]-phenyl}-methoxyimino)-acetic acid (2H2O)] |
| 7.68 | O=C(O)/C(=N/OC(c1ccc(OCc2ccc3ccccc3n2)cc1)C1CCCCC1)c1cccs1 (stereo not given) [(E)-{Cyclohexyl-[4-(quinolin-2-ylmethoxy)-phenyl]-methoxyimino}-thiophen-2-yl-acetic acid (2.5H2O)] |
| 7.22 | O=C(O)[C@@H](c1ccc(OCc2ccc3ccccc3n2)cc1)C1CCCC1 [(R)-Cyclopentyl-[4-(quinolin-2-ylmethoxy)-phenyl]-acetic acid] |
| 7.77 | C/C(CCC(=O)O)=N\OC(c1ccc(OCc2ccc3ccccc3n2)cc1)C1CCCCC1 (stereo not given) [(Z)-4-{Cyclohexyl-[4-(quinolin-2-ylmethoxy)-phenyl]-methoxyimino}-pentanoic acid] |
| 6.31 | O=C(O)/C=N/OC(c1ccc(OCc2csc(-c3ccc(Cl)cc3)n2)cc1)C1CCCCC1 (stereo not given) [({4-[2-(4-Chloro-phenyl)-thiazol-4-ylmethoxy]-phenyl}-cyclohexyl-methoxyimino)-acetic acid] |

| SMILES | pIC50 |
| --- | --- |
| C/C(=N\OC(CC(C)(C)c1ccccc1)c1ccc(OCc2ccc3ccccc3n2)cc1)C(=O)O (stereo not given) [2-{3-Methyl-3-phenyl-1-[4-(quinolin-2-ylmethoxy)-phenyl]-butoxyimino}-propionic acid (0.25H2O)] | 7.66 |
| C/C(=N\OC(CCCc1ccc(F)cc1)c1ccc(OCc2ccc3ccccc3n2)cc1)C(=O)O (stereo not given) [2-{4-(4-Fluoro-phenyl)-1-[4-(quinolin-2-ylmethoxy)-phenyl]-butoxyimino}-propionic acid] | 8.05 |

Reference: BindingDB's records for doi:10.1021/jm9904102 (Abbott Laboratories, 2000)
